In test [1] the target is T1, D3R (Homo sapiens (Human), UniProt P35462). Nature of the test: D3 Mitogenesis Functional Assay (3H-thymidine uptake, CHOp-D3 cells). In kind it is cell-based. An outline of the steps:
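CHO cells expressing human D3, serum-starved 24 h, then given compound (agonist mode) or antagonist plus 30 nM quinpirole final for 16 h at 37 °C. A 2 h [3H]thymidine pulse was used for uptake.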

The test system of the next test is Long Evans rats. Nature of the test: Food self-administration under PR schedule of reinforcement. The following applies: 3.75 mg dose vs 0; t(7)=0.43, p=0.66. It counts as in vivo, rat. How it is done: These studies were performed using Long Evans rats using standard protocols. Training and testing took place in ventilated and sound-attenuated operant chambers measuring 30×21×18 cm. Each chamber contained two levers, one light above each of the levers, and a food trough. Each lever was positioned 2.5 cm from the rod floor and the food trough (measuring 5×5 cm) was centered between the two levers. A different set of animals (n=8) was trained to press a lever reinforced by food under a FR1 schedule of reinforcement. […] Percentage of baseline BPs for food self-administration was analyzed using a dependent measures t-test comparing the 0 and 3.75 mg doses of 113.

Another test addresses human D2 receptors (Homo sapiens (Human), UniProt P14416). Put plainly: D2 Mitogenesis Functional Assay (3H-thymidine uptake, CHOp-D2 cells). In kind it is cell-based. The note with it: inhibition of quinpirole (30 nM final) stimulation of mitogenesis; read-out: D2 Antagonist IC50.
Test [2] addresses T1, D3R. Nature of the test: β-Arrestin Recruitment Assay, U2OS DRD3. It counts as cell-based. The following applies: antagonist vs EC80 8 nM PD128907, U2OS DRD3 cells; read-out: D3 IC50. The procedure:
Antagonist potency of the compounds against agonist induced recruitment of β-arrestin by D3R and D2LR was measured using DiscoverRx PathHunter eXpress kits. […] After incubation at 37° C. for 90 min, the DiscoveRx detection reagent was added, the plates were incubated at room temperature for 60 min and the luminescence was measured on a Synergy 4 plate reader (BioTek). The data were plotted and the agonist EC80 values were calculated using GraphPad Prism software. For antagonist activity, the cells were plated as described above and treated with multiple concentrations (starting from 500 nM, half log dilution, 10 dose points) of the test compounds in Plating Reagent with 0.1% DMSO.
A general note: Arrestin recruitment assays detect the binding of arrestin to an activated receptor.

The next test concerns Rats. Put plainly: Cue-induced reinstatement of cocaine-seeking. In kind it is in vivo, rat. The following applies: 3 doses ip 20 minutes before reinstatement session. How it is done: Rats were trained to self-administer cocaine (1.0 mg/kg/injection) under a FR1 schedule of reinforcement in daily 3-h sessions and, after stable responding was established (as described above) the schedule was changed to FR3. After stable responding under the FR3 schedule was established, extinction training began. Stable responding was defined as follows: 12 consecutive sessions in which total rewards per session was greater than 20 and in which total rewards per session for the last three sessions was within ±10% of the mean of the three sessions. […] After extinction criteria were met each rat was tested in one 1-h reinstatement session; each rat received an ip injection of vehicle or one of 3 doses of the test compound and 20 minutes later was placed in the operant chamber. At the start of the reinstatement session the cocaine-associated cues (light on for 20 s and pump on for 4.5 s) were presented twice, once at 25 sec and again at 2 min into the session. Presses on the active lever illuminated the light and activated the pump.

T1 sequence (P35462 whole entry): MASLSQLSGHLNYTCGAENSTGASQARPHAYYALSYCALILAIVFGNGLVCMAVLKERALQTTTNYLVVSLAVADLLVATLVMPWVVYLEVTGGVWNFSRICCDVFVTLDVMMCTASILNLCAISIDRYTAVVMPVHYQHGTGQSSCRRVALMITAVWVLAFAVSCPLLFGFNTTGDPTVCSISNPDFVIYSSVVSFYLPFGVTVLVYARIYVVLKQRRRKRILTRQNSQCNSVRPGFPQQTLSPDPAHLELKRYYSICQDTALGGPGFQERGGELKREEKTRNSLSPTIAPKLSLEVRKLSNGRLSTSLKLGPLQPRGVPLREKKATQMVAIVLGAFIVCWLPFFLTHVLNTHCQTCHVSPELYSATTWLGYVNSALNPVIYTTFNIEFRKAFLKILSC
human D2 receptors, sequence (P14416 whole entry): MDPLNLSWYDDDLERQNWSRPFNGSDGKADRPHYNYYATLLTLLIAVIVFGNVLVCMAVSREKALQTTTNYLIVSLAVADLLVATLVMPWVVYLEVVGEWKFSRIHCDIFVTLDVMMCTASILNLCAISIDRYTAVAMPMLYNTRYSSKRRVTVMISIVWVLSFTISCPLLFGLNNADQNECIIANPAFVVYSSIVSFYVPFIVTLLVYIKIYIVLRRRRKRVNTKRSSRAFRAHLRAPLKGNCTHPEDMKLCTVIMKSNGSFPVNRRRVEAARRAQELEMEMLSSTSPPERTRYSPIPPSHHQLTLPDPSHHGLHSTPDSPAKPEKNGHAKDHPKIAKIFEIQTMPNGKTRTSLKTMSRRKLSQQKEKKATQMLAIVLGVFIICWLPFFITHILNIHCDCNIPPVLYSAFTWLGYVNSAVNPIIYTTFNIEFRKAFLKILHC

On to `CC(C)(C)c1nc(N2CCN(CCCCNC(=O)c3cn4ccccc4n3)CC2)cc(C(F)(F)F)n1` [Compound 113, N-(4-(4-(2-(tert-Butyl)-6-(trifluoromethyl)pyrimidin-4-yl)piperazin-1-yl)butyl)imidazo[1,2-a]pyridine-2-carboxamide], for which the Emax at 10 µM at D3R [1] (at 10 μM, % maximum stimulation vs quinpirole (100%), read-out: D3 Agonist Emax) was found to be 0%. Further, the IC50 at D3R [1] (inhibition of quinpirole (30 nM final) stimulation of mitogenesis, read-out: D3 Antagonist IC50) was determined as 157 ± 34 nM; on human D2 receptors it was 2300 ± 1100 nM; on D3R [2] it was 0.56 ± 0.12 nM. Also, the “percentage of baseline BPs for food self-administration under PR schedule” value in the test with Long Evans rats was “did not affect food self-administration”. The “cue-induced reinstatement (active lever presses, 1-h test)” value in the test with Rats is listed as “strongly reduced in a dose-related fashion”.

As usually defined, the Emax is the size of the effect at its maximum, as opposed to the concentration needed. Usually IC50 stands for the concentration that inhibits the measured activity by half.

These data come from patent US9598387B2 (Southern Research Institute, priority 2012, dated 2017).
